According to US8846946B2, “Germinal alkoxy/alkylspirocyclic substituted tetramate derivatives” (Bayer CropScience AG, priority 2008, dated 2014):

Key:
Type in all cases: in vivo
[1] = system: Lucilia cuprina larvae; assay: Lucillia cuprina test (LUCICU); settings: application rate of 100 ppm, treated horse meat
Procedure: (§1) • Solvent: dimethyl sulphoxide
(§2) To prepare a suitable active compound preparation, 1 part by weight of active compound is mixed with the stated amount of solvent, and the concentrate is diluted with water to the desired concentration.
Vessels containing horse meat treated with the active compound preparation of the desired concentration are populated with Lucilia cuprina larvae.
After the desired period of time, the kill in % is determined. 100% means that all of the larvae have been killed; 0% means that none of the larvae have been killed.

[2] = system: Boophilus microplus; assay: Boophilus microplus test (BOOPMI injection); settings: application rate of 20 μg/animal, injection into the abdomen
Procedure: as §1, §2
The solution of active compound is injected into the abdomen (Boophilus microplus), and the animals are transferred into dishes and kept in a climatised room. The activity is assessed by […] of fertile eggs.
After the desired period of time, the effect in % is determined. 100% means that none of the ticks has laid any fertile eggs.

[3] = system: Summer wheat; assay: Container trials with cereal in a greenhouse, use of safeners (mefenpyr 1 day prior to herbicide application); settings: 28 days after application, without safener
Procedure: Seeds of monocotyledonous and dicotyledonous weed and crop plants are placed in sandy loam in wood fibre pots, covered with soil and cultivated in a greenhouse under good growth conditions. 2 to 3 weeks after sowing, the test plants are treated at the one-leaf stage. The test compounds, formulated as wettable powders (WP), are then, with a water application rate of 600 l/ha (converted), with 0.2% of wetting agent added, sprayed at various dosages onto the green parts of the plants. After the test plants have […], the activity of the preparations is rated visually in comparison to untreated controls (herbicidal activity in percent: 100% activity=the plants have died, 0% activity=like control plants).
If it is additionally to be tested as to whether safeners can improve the plant compatibility of test substances in the case of crop plants, the following options are used for applying the safener: • seeds of the crop plants are, before sowing, dressed with the safener substance (the amount of safener stated in percent, based on the weight of the seed) • before application of the test substances, the crop plants are sprayed with the safener at a certain application rate per hectare (usually 1 day before the application of the test substances) • the safener is applied together with the test substance as a tank mix (the amount of safener stated in g/ha or as a ratio, based on the herbicide). Container Trials with Cereal in a Greenhouse Mefenpyr 1 Day Prior to Herbicide Application

Structure (SMILES)	kill in % (larvae killed) [1]	efficacy (no fertile eggs laid) [2]	Summer wheat observed (%) ([3]; application rate 12.5 g a.i./ha)	Summer wheat observed (%) ([3]; application rate 25 g a.i./ha)	Summer wheat observed (%) ([3]; application rate 50 g a.i./ha)
COC1(C)CCC2(CC1)NC(=O)C(c1c(C)cc(Cl)cc1C)=C2O (mixture of isomers) [I-a-3]	≥ 80%	good efficacy	–	–	–
CCc1cc(C)cc(C)c1C1=C(O)C2(CCC(CC)(OC)CC2)NC1=O (mixture of isomers) [I-a-64]	–	–	20%	60%	70%
CCOC(=O)OC1=C(c2c(C)cc(C)cc2C)C(=O)NC12CCC(C)(OC)CC2 (stereo not drawn) [I-c-3]	–	good efficacy	–	–	–
